Data taken from PubChem BioAssay AID493250 (Broad Institute, 2011).
Activity calls are given as the source filed them.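 The calls were made as follows: active = signal decrease with fitted half-maximal dose at or below ten times the highest valid tested dose; inconclusive = poor fit, or flat fit at 30 to 70% inhibition; inactive = the rest.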

Molecular target: Zinc finger protein mex-5 (Caenorhabditis elegans) (UniProt Q9XUB2)
Assay: MEX-5 zinc finger-RNA interaction blockers – biochemical, fluorescence polarization, C. elegans, cherry-picked, round 3, dose response (AID 493250)
Details: purified MEX-5-MBP, FITC-TCR2 RNA fluorescence polarization

Zinc finger protein mex-5 (Caenorhabditis elegans), sequence (Q9XUB2 whole entry, looked up): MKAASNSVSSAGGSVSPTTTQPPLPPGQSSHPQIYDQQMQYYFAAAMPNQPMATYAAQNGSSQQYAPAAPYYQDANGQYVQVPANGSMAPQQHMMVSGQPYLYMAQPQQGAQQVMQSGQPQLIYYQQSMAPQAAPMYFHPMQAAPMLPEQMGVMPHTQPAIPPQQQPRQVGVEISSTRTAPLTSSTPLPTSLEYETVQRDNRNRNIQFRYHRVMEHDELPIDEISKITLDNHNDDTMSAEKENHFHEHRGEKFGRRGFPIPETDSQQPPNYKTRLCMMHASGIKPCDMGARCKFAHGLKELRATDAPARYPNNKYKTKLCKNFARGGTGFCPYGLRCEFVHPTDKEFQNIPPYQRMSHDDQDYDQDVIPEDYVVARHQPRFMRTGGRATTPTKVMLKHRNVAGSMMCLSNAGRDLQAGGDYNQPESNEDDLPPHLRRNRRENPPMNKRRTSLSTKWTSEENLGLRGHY

Row | SMILES | AC50
1 | CN1CC=C2C(C#N)=C(N)C(C#N)(C#N)C(Cc3ccccc3)C2C1 (stereo not drawn) | 4.69 µM
2 | O=[N+]([O-])c1ccccc1NC(=S)N/N=C/c1ccc(O)c(O)c1 | 10.4 µM
3 | COc1cccc(C2C=C(c3cccs3)Nc3ncnn32)c1OC (stereo not drawn) | > 10 µM (inactive)
4 | COc1ccc(-n2c(O)c(/C=N/NS(=O)(=O)c3cc(C)ccc3C)c3ccccc3c2=O)cc1OC | 1.32 µM
5 | CCOc1cc(/C=C2\CCCc3c2nc2ccccc2c3C(=O)O)ccc1OC | 0.906 µM
6 | N=C1CCC(=N)c2c1c(O)c1ccccc1c2O | 6.52 µM
7 | Cc1nc2nc(-c3ccc(Cl)cc3)cn2nc1C | 9.89 µM
8 | Cc1ccc(C(=O)O)cc1-c1ccc(/C=C2\SC(=O)N(CC(=O)Nc3ccccc3)C2=O)o1 | 2.74 µM
9 | CNC(=O)c1sc(N2N=C3/C(=C/c4ccccc4)CCCC3C2c2ccccc2)nc1C (stereo not drawn) | 7.59 µM
10 | Cc1ccc(S(=O)(=O)c2cc3c(=O)n4ccccc4nc3n(C3CCCCC3)c2=N)cc1 | > 10 µM (inactive)

Same assay, conditions: purified MEX-5-MBP, FITC-TCR2 RNA fluorescence polarization; at 10 µM (top of the series)

Row | SMILES | activity change, negative = inhibition
11 | O=C(Cc1csc(N2CCOCC2)n1)N/N=C/c1ccc(O)c(O)c1O | inactive
12 | Nc1nc(N)c2[nH]cnc2n1 | inactive
13 | COc1ccccc1C(=O)NNC(=O)c1csc(N2CCOCC2)n1 | inactive
14 | CCCCn1c(N)c(N(CCOC)C(=O)c2ccc(Br)o2)c(=O)[nH]c1=O | inactive
15 | CCCn1c(=N)c(C(=O)NC2CCCC2)cc2c(=O)n3cccc(C)c3nc21 | inactive
16 | Oc1cccc(NC(=S)N=Nc2c(O)[nH]c3ccc(Br)cc23)c1 | inactive
17 | C=CCc1cccc2cc(C(=O)NNC(=O)CC#N)c(=O)oc12 | inactive
18 | O=[N+]([O-])c1ccc(-c2cn3nc(-c4ccccc4)c(-c4ccccc4)nc3n2)cc1 | inactive
19 | COc1cc2c(cc1OC)-c1c(OC)c(OC)cc3c1C(C2)N(C)CC3 (stereo not drawn) | inactive
20 | CCOc1ccccc1C1NC(=O)NC(C)=C1C(=O)OCc1ccccc1 (stereo not drawn) | inactive
21 | CC[N+](C)(CC)CCCOC(=O)C(O)(c1ccccc1)C1CCCCC1 (stereo not drawn) | inactive
22 | COc1ccc(C(CC(=O)N2CCCC2)c2c(OC)cc(OC)c3ccc(=O)oc23)cc1 (stereo not drawn) | inactive
23 | COc1ccccc1N1C(=O)C2C(C(=O)c3ccccc3)=NN(c3ccccc3OC)C2C1=O (stereo not drawn) | inactive
24 | O=c1[nH]cnc2c1C(c1ccccc1)c1c(nc[nH]c1=O)O2 | inactive
25 | NC(=S)N=Nc1c(O)[nH]c2cc(F)c(F)cc12 | inactive
26 | CN1CN(C)c2cccc3cccc1c23 | inactive
27 | COc1ccc(CCNc2c3ccccc3nc3ccccc23)cc1OC | inactive
28 | COc1ccccc1-c1cn[nH]c1-c1ccc(O)cc1O | inactive
29 | COC(=O)/C(C#N)=C/c1c(-c2ccccc2)nc2n1CCS2 | inactive
30 | O=C(N/N=C/c1cccnc1)c1ccccc1 | inactive
31 | CCOc1ccc(N2C(=O)C(Cl)=C(Nc3ccccc3O)C2=O)cc1 | inactive

Row | SMILES | activity change, negative = inhibition
32 | COc1cccc(CNC23CC4CC(CC(C4)C2)C3)c1OCc1ccccc1 | inactive
33 | COc1cc2c3c(c1OC)-c1cc(O)ccc1CC3NCC2 (stereo not drawn) | inactive
34 | Cc1ccc(C(=O)N/C(=C\c2ccc(-c3ccc(Cl)cc3)o2)C(=O)NCCCN(C)C)cc1 | inactive
35 | Cc1cc([N+](=O)[O-])nn1CC(=O)NNC(=S)Nc1ccc(F)cc1 | inactive
36 | Nc1c(NCc2ccccc2)c(=O)[nH]c(=O)n1Cc1ccccc1 | inactive
37 | O=C1N=c2ccccc2=C1c1sc(=S)n(NC(=O)c2ccccc2)c1O | inactive
38 | O=C(NC1CCSc2ccccc21)c1ccccc1Br (stereo not drawn) | inactive
39 | C#CCOCCOCCOCCNc1nc(N2CCN(C(=O)[C@H]([C@@H](C)O)n3cc(CCCCN)nn3)CC2)nc(N2CCN(C(=O)[C@H](C)n3cc(CCCN=C(N)N)nn3)CC2)n1 | inactive
40 | O=[N+]([O-])c1ccc(C2=CSC3=NCCN23)cc1 | inactive
41 | CC(=O)Nc1ccc2c(c1)C(=O)N(c1cccc(C)c1)C2=O | inactive
42 | Cc1c(CN2CCCC(C)C2)c(O)n(CCO)c(=O)c1C#N (stereo not drawn) | inactive
43 | COC1=C(Nc2ccc(O)cc2)C(=O)c2ccccc2C1=O | inactive
44 | CSc1nsc2nc(=O)c(/C=C3\C(C)=Nc4ccc(C)cc43)c(N)n12 | inactive
45 | O=C(O)c1cccc(NC(=S)N/N=C/c2c[nH]c3ccccc23)c1 | inactive
46 | O=c1oc2cc([N+](=O)[O-])ccc2nc1/C=C(\O)c1cccc(Br)c1 | inactive
47 | CC(=O)N1CCc2c(sc(NC(=O)C3CCCN3S(=O)(=O)c3cccs3)c2C#N)C1 (stereo not drawn) | inactive
48 | Oc1cccc(NC(=S)N=Nc2c(O)[nH]c3ccccc23)c1 | inactive
49 | C#CCOCCOCCOCCNc1nc(N2CCN(C(=O)[C@H]([C@@H](C)CC)n3cc([C@@H](N)CO)nn3)CC2)nc(N2CCN(C(=O)[C@H]([C@@H](C)CC)n3cc([C@@H](N)CO)nn3)CC2)n1 | inactive
50 | COc1ccc(-n2c(C)nc3cc(C(=O)O)ccc32)cc1 | inactive
51 | CCOc1ccc(/C=C/C(=O)c2ccccc2)cc1 | inactive
52 | COc1ccc(N(CCC#N)C(=O)/C(C#N)=C\c2cccs2)cc1 | inactive

Row | SMILES | activity change, negative = inhibition
53 | CC(C)(C)CC(C)(C)NCC(O)COc1ccc2c(c1)CCC2 (stereo not drawn) | inactive
54 | Oc1ccc(/C=N/N2CCOCC2)c(O)c1O | inactive
55 | CCCCCOP(=O)(OCCCCC)C1(NS(=O)(=O)c2ccccc2)C=CC(=O)c2ccccc21 (stereo not drawn) | inactive
56 | CSc1ccc(/C=C/C(=O)c2ccc(NC(C)=O)cc2)cc1 | inactive
57 | Cc1cc(C)c[n+](-c2nc([O-])sc2C=O)c1 | inactive
58 | COC(=O)C1CSc2[nH]c(=O)sc2C1c1ccc(O)c(OC)c1 (stereo not drawn) | inactive
59 | C=CCn1c(Cc2nc3ccc(Cl)cc3[nH]2)n[nH]c1=S | inactive
60 | Nc1ccc2oc(-c3ccccc3Cl)cc(=O)c2c1O | inactive
61 | O=c1[nH]nc(CNc2ccc(OC(F)(F)F)cc2)c2ccccc12 | inactive
62 | COCCNC(=S)NNC(=O)c1cccs1 | inactive
63 | Nc1c(C(=O)Nc2ccccc2)sc2nc3c(c(-c4ccco4)c12)CCC3 | inactive
64 | CC1=Nc2ccc(C)cc2/C1=C/c1c(N)n2c(S(=O)(=O)C(C)C)nsc2nc1=O | inactive
65 | COc1ccc(NC(=O)c2cccs2)cn1 | inactive
66 | Cc1ccc(Nc2nc(-c3ccc(O)cc3O)cs2)nc1 | inactive
67 | CCCc1nc2ccccc2c(=O)n1/N=C/c1ccc(O)c(O)c1 | inactive
68 | COc1ccc2c(c1)NC(c1ccc(N(C)C)cc1)c1cccn1-2 (stereo not drawn) | inactive
69 | CCc1ccc(/C=C2\Oc3cc(OS(C)(=O)=O)ccc3C2=O)cc1 | inactive
70 | O=C(O)c1ccc(/C=C2\SC(=S)N(Nc3ccccc3)C2=O)cc1 | inactive
71 | CCN(CC)c1ccc(C(=O)N/N=C(\C)c2cccnc2)cc1 | inactive
72 | CCOc1nc(-c2ccccc2)c2cc(Br)ccc2n1 | inactive
73 | Cc1ccc2c(c1Cl)NC(C(=O)O)C1CC(Sc3ccccc3[N+](=O)[O-])C(Cl)C21 (stereo not drawn) | inactive

Row | SMILES | activity change, negative = inhibition
74 | Nc1nonc1C(=O)N/N=C/c1cc(Br)ccc1O | inactive
75 | FC(F)(F)c1ccc(Cl)c(-n2c(-c3cc(-c4ccco4)[nH]n3)n[nH]c2=S)c1 | inactive
76 | CCc1cc(-c2n[nH]c(C)c2-c2nc3ccccc3s2)c(O)cc1OCC(=O)NN | inactive
77 | CCN(CC(=O)Nc1ccc(NC(C)=O)cc1)Cc1c(O)ccc2cc(Br)ccc12 | inactive
78 | Cc1cc(C(=O)N/N=C/c2ccc(-c3ccc(C)c(Cl)c3)o2)n[nH]1 | inactive
79 | O=C(O)CCSc1nc2ccccc2n1Cc1ccccc1 | inactive
80 | COc1ccc(N=C2S/C(=C\c3ccc(N4CCOCC4)o3)C(=O)N2CCc2c[nH]c3ccccc23)cc1 | inactive
81 | Cc1cc(/C=C2\C(=O)NC(=O)N(c3cccc(F)c3)C2=O)c(C)n1-c1cc(C(=O)O)cc(C(=O)O)c1 | inactive
82 | Brc1ccc(-c2cn3nc4c(nc3n2)CCCC4)cc1 | inactive
83 | COc1ccc(NC(=S)NNC(=O)C(C)n2nc(C)c([N+](=O)[O-])c2C)cc1 (stereo not drawn) | inactive
84 | CCn1c(C)nc2c1C(=O)c1ccccc1C2=O | inactive
85 | NC(=O)C(=O)N/N=C/c1c2ccccc2cc2ccccc12 | inactive
86 | CN(N)c1ccc2c(C(F)(F)F)cc(C(F)(F)F)nc2n1 | inactive
87 | Cc1cc(C)c2ccc(=S)[nH]c2n1 | inactive
88 | Oc1c(C=Nc2ccccc2)sc(=S)n1Cc1ccccc1 | inactive
89 | COc1ccc(NCc2n[nH]c(=O)c3ccccc23)cc1 | inactive
90 | COc1ccc(/C=C2\CCCc3c2nc2ccc(C)cc2c3C(=O)O)cc1O | inactive
91 | CC(C)CNC(=O)c1ccccc1Oc1ccccc1 | inactive
92 | O=C(NNC(=O)c1ccco1)c1csc(N2CCOCC2)n1 | inactive
93 | Cc1cccc(C(=O)NNC(=O)c2csc(N3CCOCC3)n2)c1C | inactive
